# Where two headings read alike, the source gives them in different places.
# Columns and labels:
# [1] = cited from earlier work; for logP: Table 6
# Field Pansy = test system: Field Pansy; design: species or system Viola avensis; conditions: in vivo
SMILES,"Log Pow ([1]; Table 5, no pH given)",other results
"C[C@@H]1CC[C@@H](C(C)(C)S)C(=O)C1 [(1R,4R)-8-mercapto-3-p-menthanone]",–,"logP(o/w) ([1]; Table 1, carriers): 2.9"
CCN(C(=O)n1nnn(-c2ccccc2Cl)c1=O)C1CCCCC1 [Fentrazamide],–,"Log P ([1]; Table 4, no pH given): 3.60"
CS(=O)(=O)c1cc(Cl)ccc1C(=O)c1cnoc1C1CC1 [Isoxachlortole],–,Log P ([1]; pH 2): 2.76 (pH 2)
"Cc1cc(Cl)ccc1OCC(=O)O [MCPA, (4-chloro-2-methylphenoxy)acetic acid]",–,Log Pow ([1]; pH 1): 2.8 (pH 1); plant vigour of Pansy versus untreated (Field Pansy): more vigorous plants than untreated only plants
CS(=O)(=O)c1ccc(C(=O)C2C(=O)CCCC2=O)c([N+](=O)[O-])c1 [Mesotrione],–,"Log P ([1]; Table 4, no pH given): 2.2"
CCc1cccc(C)c1N(C(=O)CCl)C(C)COC (stereo not shown) [Metolachlor],2.9,"Log P ([1]; Table 4, no pH given): 3.00"
CCc1cccc(C)c1N(C(=O)CCl)[C@@H](C)COC [S-metolachlor],3.1,–
O=C(O)c1cc(Oc2ccc(C(F)(F)F)cc2Cl)ccc1[N+](=O)[O-] [acifluorfen],4.2,–
CC(C)c1nn(C(=O)NC(C)(C)C)c(=O)n1N [amicarbazone],–,Log P ([1]; pH 7): 1.23 (pH 7)
C#CCOc1cc(-n2nc3n(c2=O)CCCC3)c(Cl)cc1Cl [azafenidin],2.7,–
Cc1ccc(C(=O)COc2c(C(=O)c3ccc(Cl)c(C)c3Cl)c(C)nn2C)cc1 [benzofenap],4.7,–
COC(=O)c1cc(Oc2ccc(Cl)cc2Cl)ccc1[N+](=O)[O-] [bifenox],4.5,–
N#Cc1cc(Br)c(O)c(Br)c1 [bromoxynil],2.8,logP [1]: 2.8
Cc1ccc(NC(=O)N(C)C)cc1Cl [chlorotoluron],2.5,–
COC(=O)c1c(Cl)c(Cl)c(C(=O)OC)c(Cl)c1Cl [chlorthal-dimethyl],4.3,–
CCOc1nc(F)cc2nc(S(=O)(=O)Nc3c(Cl)cccc3C(=O)OC)nn12 [cloransulam-methyl],1.2,–
CCCC(=NOCC)C1=C(O)CC(C2CCCSC2)CC1=O (stereo not shown) [cycloxydim],1.4,–
CCOC1Oc2ccc(OS(C)(=O)=O)cc2C1(C)C (stereo not shown) [ethofumesate],2.7,–
CCOC(=O)Cc1cccc2ccccc12 [ethyl 1-naphthylacetate],–,logP [1]: 3.8
CN(C)C(=O)Nc1ccccc1 [fenuron],1.4,–

SMILES,"Log Pow ([1]; Table 5, no pH given)",other results
C[C@@H](Oc1ccc(Oc2ccc(C(F)(F)F)cn2)cc1)C(=O)O [fluazifop-P],3.1,–
CCCCOC(=O)C(C)Oc1ccc(Oc2ccc(C(F)(F)F)cn2)cc1 (stereo not shown) [fluazifop-butyl],4.5,–
CCCCOC(=O)[C@@H](C)Oc1ccc(Oc2ccc(C(F)(F)F)cn2)cc1 [fluazifop-p-butyl],4.5,–
C#CCN1C(=O)COc2cc(F)c(N3C(=O)C4=C(CCCC4)C3=O)cc21 [flumioxazin],1.3,–
O=C(OCc1ccccc1)c1sc(Cl)nc1C(F)(F)F [flurazole],–,logP [1]: 4.1
CS(=O)(=O)NC(=O)c1cc(Oc2ccc(C(F)(F)F)cc2Cl)ccc1[N+](=O)[O-] [fomesafen],–,Log Pow ([1]; pH 1): 2.9 (pH 1)
COC(=O)[C@@H](C)Oc1ccc(Oc2ncc(C(F)(F)F)cc2Cl)cc1 [haloxyfop-P-methyl],4,–
CCOCCOC(=O)C(C)Oc1ccc(Oc2ncc(C(F)(F)F)cc2Cl)cc1 (stereo not shown) [haloxyfop-etotyl],4.3,–
CC(Oc1ccc(Oc2ncc(C(F)(F)F)cc2Cl)cc1)C(=O)O (stereo not shown) [haloxyfop],3.4,–
CC(C)C1(C)N=C(c2nc3ccccc3cc2C(=O)O)NC1=O (stereo not shown) [imazaquin],2.9,–
CCc1cnc(C2=NC(C)(C(C)C)C(=O)N2)c(C(=O)O)c1 (stereo not shown) [imazethapyr],–,Log P ([1]; pH 7): 1.49 (pH 7)
CON(C)C(=O)Nc1ccc(Cl)c(Cl)c1 [linuron],3,–
CC(=O)Nc1cc(NS(=O)(=O)C(F)(F)F)c(C)cc1C [mefluidide],2,–
Cc1nnc(-c2ccccc2)c(=O)n1N [metamitron],0.8,–
Cc1cccc(C)c1N(Cn1cccn1)C(=O)CCl [metazachlor],2.1,–
CON(C)C(=O)Nc1ccc(Oc2ccc3c(c2)OC(C)(OC)CC3(C)C)cc1 (stereo not shown) [metobenzuron],6.3,–
COc1cc(OC)n2nc(S(=O)(=O)Nc3c(Cl)ccc(C)c3Cl)nc2n1 [metosulam],–,Log Pow ([1]; pH 9): 3.1 (pH 9)
COc1ccc(NC(=O)N(C)C)cc1Cl [metoxuron],1.6,–
CCSC(=O)N1CCCCCC1 [molinate],2.9,–
CNc1cnn(-c2cccc(C(F)(F)F)c2)c(=O)c1Cl [norflurazon],2.5,logP [1]: 2.45

SMILES,"Log Pow ([1]; Table 5, no pH given)",other results
CCOc1cc(Oc2ccc(C(F)(F)F)cc2Cl)ccc1[N+](=O)[O-] [oxyfluorfen],4.5,logP [1]: 4.5
CCC(CC)Nc1c([N+](=O)[O-])cc(C)c(C)c1[N+](=O)[O-] [pendimethalin],5.2,logP [1]: 5.2
COC(=O)Nc1cccc(OC(=O)Nc2cccc(C)c2)c1 [phenmedipham],–,Log Pow ([1]; pH 3.9): 3.6 (pH 3.9)
CCCOCCN(C(=O)CCl)c1c(CC)cccc1CC [pretilachlor],4.1,–
COC(=O)c1ccccc1S(=O)(=O)NC(=O)Nc1nc(OC(F)F)cc(OC(F)F)n1 [primisulfuron-methyl],–,"Log Pow ([1]; Table 5, pH 7): 0.2 (pH 7)"
CCC(=O)Nc1ccc(Cl)c(Cl)c1 [propanil],3.3,–
CCc1cccc(C)c1N(COC(C)C)C(=O)CCl [propisochlor],3.5,–
C#CC(C)(C)NC(=O)c1cc(Cl)cc(Cl)c1 [propyzamide],3.2,–
CCOC(=O)c1cnn(C)c1S(=O)(=O)NC(=O)Nc1nc(OC)cc(OC)n1 [pyrazosulfuron-ethyl],1.3,–
COc1cc(OC)nc(Oc2cccc(Oc3nc(OC)cc(OC)n3)c2C(=O)ON=C(c2ccccc2)c2ccccc2)n1 [pyribenzoxim],3,–
CCCCCCCCSC(=O)Oc1cc(Cl)nnc1-c1ccccc1 [pyridate],4,–
CCNc1nc(Cl)nc(NCC)n1 [simazine],2.1,–
COC(=O)c1ccccc1S(=O)(=O)NC(=O)Nc1nc(C)cc(C)n1 [sulfometuron-methyl],–,Log Pow ([1]; pH 5): 1.2 (pH 5)
CCNc1nc(NC(C)(C)C)nc(OC)n1 [terbumeton],3,–
CCNc1nc(Cl)nc(NC(C)(C)C)n1 [terbuthylazine],3.2,–
COc1ccsc1CN(C(=O)CCl)c1c(C)cccc1C [thenylchlor],3.5,–
O=C(O)COc1nc(Cl)c(Cl)cc1Cl [triclopyr],–,"Log Pow ([1]; Table 5, pH 5): 0.4 (pH 5)"
CCCN(CCC)c1c([N+](=O)[O-])cc(C(F)(F)F)cc1[N+](=O)[O-] [trifluralin],4.8,–
